{
  "source": "patent US11472811B2",
  "about": "“Pyrazolotriazolopyrimidine derivatives as A2A receptor antagonist” (BEIGENE, LTD., priority 2018, dated 2022)",
  "data": [
    {"target": "human A2A receptor (A2AR) (Homo sapiens (Human), UniProt P29274)", "sequence (P29274 whole entry)": "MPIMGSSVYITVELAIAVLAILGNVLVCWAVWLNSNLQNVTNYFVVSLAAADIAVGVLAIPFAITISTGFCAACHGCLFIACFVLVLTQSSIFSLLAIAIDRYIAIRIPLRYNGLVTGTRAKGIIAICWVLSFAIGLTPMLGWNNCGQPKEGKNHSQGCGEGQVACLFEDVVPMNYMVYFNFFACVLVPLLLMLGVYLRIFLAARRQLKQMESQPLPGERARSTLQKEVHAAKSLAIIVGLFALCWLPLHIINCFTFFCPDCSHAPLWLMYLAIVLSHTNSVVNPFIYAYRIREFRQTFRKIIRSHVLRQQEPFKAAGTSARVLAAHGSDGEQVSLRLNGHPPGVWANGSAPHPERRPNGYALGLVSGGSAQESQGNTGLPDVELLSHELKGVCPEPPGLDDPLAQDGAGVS", "experiment": "Luciferase reporter assay (HEK293-A2AR-luc2p/CRE/Hygro cells)", "type": "cell-based", "details": "3 nM CGS21680, 5 h incubation", "description": "HEK293 cells were maintained in Dulbecco's modified Eagle's medium (DMEM, Gibco) supplemented with 10% fetal bovine serum (FBS, Thermo Scientific), 100 units/mL penicillin (Gibco), and 0.1 mg/mL streptomycin (Gibco) in a humidified 37° C. environment with 5% CO2. Plasmid encoding wild-type human A2A receptor (A2AR) (in pcDNA3.1) was synthesized by Genscript (Nanjing, China). Transfection of the plasmids was performed in 6-well plates with 4×10^5 cells using Lipofectamin 2000 (ThermoFisher Scientific) according to the instruction of the manufacturer. Cell clones that stably express A2AR were established and maintained in the same complete medium as the HEK293 cells in addition of G-418 (Gibico). Expression level of A2AR in each single cell clone was determined using immunoblotting and FACS method. HEK293-A2AR stable cells were then transfected with pGL4.29[luc2P/CRE/Hygro] (Promega) luciferase reporter plasmid for establishing the HEK293-A2AR-luc2p/CRE/Hygro stable cell line.\nHEK293-A2AR-luc2p/CRE/Hygro cells were seeded at a density of 5,000 cells/well in DMEM with 1% FBS and 1 U/mL adenosine deaminase (ADA) (Sigma). After 18 h, the cells were treated with 3 nM CGS21680 plus a series dilution of A2AR antagonist, the compounds disclosed herein at the concentration of 0.1˜10000 nM, prepared in DMEM with 1% FBS. After 5 h incubation, the luciferase activity in cells were measured using the Bright-Glo Luciferase Assay System (Promega) according to manufacturer's instructions. The luminescence signal was measured using a PHERAstar FS plate reader (BMG Labtech). […] Maximal luminescence intensity was determined in the presence of 3 nM CGS21680 and was set as 100%. The IC50 value was calculated from a dose dependent inhibition curve across the range of compound concentrations.", "units": {"IC50": "nM"}, "values": [
      {"smiles": "COc1cccc(CNC(=O)C(C)(c2ccccc2)n2ncc3c2nc(N)n2nc(-c4ccco4)nc32)n1", "note": "(centres unmarked) [Example 112, 2-(5-amino-2-(furan-2-yl)-7H-pyrazolo[4,3-e][1,2,4]triazolo[1,5-c]pyrimidin-7-yl)-N-((6-methoxypyridin-2-yl)methyl)-2-phenylpropanamide]", "IC50": 4.1},
      {"smiles": "Cc1cccc(C(C)(C(=O)NCC2(O)COC2)n2ncc3c2nc(N)n2nc(-c4ccco4)nc32)c1", "note": "(centres unmarked) [Example 85, 2-(5-amino-2-(furan-2-yl)-7H-pyrazolo[4,3-e][1,2,4]triazolo[1,5-c]pyrimidin-7-yl)-N-((3-hydroxyoxetan-3-yl)methyl)-2-(m-tolyl)propanamide]", "IC50": 7.3},
      {"smiles": "CC(C(=O)Nc1ccncc1)(c1ccccc1)n1ncc2c1nc(N)n1nc(-c3ccco3)nc21", "note": "(centres unmarked) [Example 65, 2-(5-amino-2-(furan-2-yl)-7H-pyrazolo[4,3-e][1,2,4]triazolo[1,5-c]pyrimidin-7-yl)-2-phenyl-N-(pyridin-4-yl)propanamide]", "IC50": 25.5},
      {"smiles": "Nc1nc2c(cnn2C(C(=O)NC2COc3ccccc32)c2ccccc2)c2nc(-c3ccco3)nn12", "note": "(centres unmarked) [Example 20, 2-(5-amino-2-(furan-2-yl)-7H-pyrazolo[4,3-e][1,2,4]triazolo[1,5-c]pyrimidin-7-yl)-N-(2,3-dihydrobenzofuran-3-yl)-2-phenylacetamide]", "IC50": 14.6},
      {"smiles": "Nc1nc2c(cnn2C(C(=O)N[C@H]2CC[C@@H](O)CC2)c2ccccc2)c2nc(-c3ccco3)nn12", "note": "(mixture of isomers) [Example 92, 2-(5-amino-2-(furan-2-yl)-7H-pyrazolo[4,3-e][1,2,4]triazolo[1,5-c]pyrimidin-7-yl)-(cis)-N-(4-hydroxycyclohexyl)-2-phenylacetamide]", "IC50": 12.4},
      {"smiles": "Cc1cccc(CCNC(=O)[C@@](C)(c2ccccc2)n2ncc3c2nc(N)n2nc(-c4ccco4)nc32)n1", "note": "[Example 150B, (R)-2-(5-amino-2-(furan-2-yl)-7H-pyrazolo[4,3-e][1,2,4]triazolo[1,5-c]pyrimidin-7-yl)-N-(2-(6-methylpyridin-2-yl)ethyl)-2-phenylpropanamide]", "IC50": 26.5},
      {"smiles": "CCNC(=O)C(c1ccccc1)n1ncc2c1nc(N)n1nc(-c3ccco3)nc21", "note": "(centres unmarked) [Example 5, 2-(5-amino-2-(furan-2-yl)-7H-pyrazolo[4,3-e][1,2,4]triazolo[1,5-c]pyrimidin-7-yl)-N-ethyl-2-phenylacetamide]", "IC50": 7},
      {"smiles": "C[C@@](C(=O)N[C@@H]1CCC[C@@H]1O)(c1ccccc1)n1ncc2c1nc(N)n1nc(-c3ccco3)nc21", "note": "[Example 48A, (S)-2-(5-amino-2-(furan-2-yl)-7H-pyrazolo[4,3-e][1,2,4]triazolo[1,5-c]pyrimidin-7-yl)-N-((1R,2S)-2-hydroxycyclopentyl)-2-phenylpropanamide]", "IC50": 12.6},
      {"smiles": "CC(C(=O)N[C@@H]1CC[C@H](O)C1)(c1ccccc1)n1ncc2c1nc(N)n1nc(-c3ccco3)nc21", "note": "(stereo partly drawn) [Example 135, 2-(5-amino-2-(furan-2-yl)-7H-pyrazolo[4,3-e][1,2,4]triazolo[1,5-c]pyrimidin-7-yl)-N-((1R,3S)-3-hydroxycyclopentyl)-2-phenylpropanamide]", "IC50": 11.2},
      {"smiles": "CC1(O)CC(NC(=O)[C@@](C)(c2ccccc2)n2ncc3c2nc(N)n2nc(-c4ccco4)nc32)C1", "note": "(stereo in doubt) [Example 105B, (R)-2-(5-amino-2-(furan-2-yl)-7H-pyrazolo[4,3-e][1,2,4]triazolo[1,5-c]pyrimidin-7-yl)-(cis)-N-(3-hydroxy-3-methylcyclobutyl)-2-phenylpropanamide]", "IC50": 5},
      {"smiles": "CC(C(=O)NCC1CCCOC1)(c1ccccc1)n1ncc2c1nc(N)n1nc(-c3ccco3)nc21", "note": "(centres unmarked) [Example 61, 2-(5-amino-2-(furan-2-yl)-7H-pyrazolo[4,3-e][1,2,4]triazolo[1,5-c]pyrimidin-7-yl)-2-phenyl-N-((tetrahydro-2H-pyran-3-yl)methyl)propanamide]", "IC50": 12.4},
      {"smiles": "C[C@](C(=O)N[C@H]1COC[C@@H]1O)(c1ccccc1)n1ncc2c1nc(N)n1nc(-c3ccco3)nc21", "note": "[Example 106B, (R)-2-(5-amino-2-(furan-2-yl)-7H-pyrazolo[4,3-e][1,2,4]triazolo[1,5-c]pyrimidin-7-yl)-N-((3S,4R)-4-hydroxytetrahydrofuran-3-yl)-2-phenylpropanamide]", "IC50": 41.7},
      {"smiles": "CC(C(=O)NCC1(O)CC1)(c1ccccc1)n1ncc2c1nc(N)n1nc(-c3ccco3)nc21", "note": "(centres unmarked) [Example 88, 2-(5-amino-2-(furan-2-yl)-7H-pyrazolo[4,3-e][1,2,4]triazolo[1,5-c]pyrimidin-7-yl)-N-((1-hydroxycyclopropyl)methyl)-2-phenylpropanamide]", "IC50": 437},
      {"smiles": "CC1(O)CCC(NC(=O)[C@](C)(c2ccccc2)n2ncc3c2nc(N)n2nc(-c4ccco4)nc32)CC1", "note": "(stereo in doubt) [Example 33A, (S)-2-(5-amino-2-(furan-2-yl)-7H-pyrazolo[4,3-e][1,2,4]triazolo[1,5-c]pyrimidin-7-yl)-(trans)-N-(4-hydroxy-4-methylcyclohexyl)-2-phenylpropanamide]", "IC50": 13.2},
      {"smiles": "Nc1nc2c(cnn2C(C(=O)NCC2(O)COC2)c2ccccc2)c2nc(-c3ccco3)nn12", "note": "(centres unmarked) [Example 82, 2-(5-amino-2-(furan-2-yl)-7H-pyrazolo[4,3-e][1,2,4]triazolo[1,5-c]pyrimidin-7-yl)-N-((3-hydroxyoxetan-3-yl)methyl)-2-phenylacetamide]", "IC50": 4.5},
      {"smiles": "CC1(O)CCC(NC(=O)[C@](C)(c2ccccc2)n2ncc3c2nc(N)n2nc(-c4ccco4)nc32)CC1", "note": "(stereo in doubt) [Example 69A, (S)-2-(5-amino-2-(furan-2-yl)-7H-pyrazolo[4,3-e][1,2,4]triazolo[1,5-c]pyrimidin-7-yl)-(cis)-N-(4-hydroxy-4-methylcyclohexyl)-2-phenylpropanamide]", "IC50": 41.6},
      {"smiles": "C[C@H](NC(=O)C(c1ccccc1)n1ncc2c1nc(N)n1nc(-c3ccco3)nc21)c1ccccc1", "note": "(stereo partly drawn) [Example 9, 2-(5-amino-2-(furan-2-yl)-7H-pyrazolo[4,3-e][1,2,4]triazolo[1,5-c]pyrimidin-7-yl)-2-phenyl-N—((S)-1-phenylethy)acetamide]", "IC50": 31.9},
      {"smiles": "CC(C(=O)NC1CC1)(c1ccccc1)n1ncc2c1nc(N)n1nc(-c3ccco3)nc21", "note": "(centres unmarked) [Example 40, 2-(5-amino-2-(furan-2-yl)-7H-pyrazolo[4,3-e][1,2,4]triazolo[1,5-c]pyrimidin-7-yl)-N-cyclopropyl-2-phenylpropanamide]", "IC50": 14.9},
      {"smiles": "CC(C(=O)NCC1(O)COC1)(c1ccccc1F)n1ncc2c1nc(N)n1nc(-c3ccco3)nc21", "note": "(centres unmarked) [Example 87, 2-(5-amino-2-(furan-2-yl)-7H-pyrazolo[4,3-e][1,2,4]triazolo[1,5-c]pyrimidin-7-yl)-2-(2-fluorophenyl)-N-((3-hydroxyoxetan-3-yl)methyl)propanamide]", "IC50": 4.9},
      {"smiles": "Nc1nc2c(cnn2C(C(=O)NC2CCc3ccccc32)c2ccccc2)c2nc(-c3ccco3)nn12", "note": "(centres unmarked) [Example 14, 2-(5-amino-2-(furan-2-yl)-7H-pyrazolo[4,3-e][1,2,4]triazolo[1,5-c]pyrimidin-7-yl)-N-(2,3-dihydro-1H-inden-1-yl)-2-phenylacetamide]", "IC50": 6.1},
      {"smiles": "CCOc1ccccc1CNC(=O)C(c1ccccc1)n1ncc2c1nc(N)n1nc(-c3ccco3)nc21", "note": "(centres unmarked) [Example 6, 2-(5-amino-2-(furan-2-yl)-7H-pyrazolo[4,3-e][1,2,4]triazolo[1,5-c]pyrimidin-7-yl)-N-(2-triethoxybenzyl)-2-phenylacetamide]", "IC50": 0.9},
      {"smiles": "CC(C(=O)N[C@H]1CCCC[C@H]1O)(c1ccccc1)n1ncc2c1nc(N)n1nc(-c3ccco3)nc21", "note": "(stereo partly drawn) [Example 58A, 2-(5-amino-2-(furan-2-yl)-7H-pyrazolo[4,3-e][1,2,4]triazolo[1,5-c]pyrimidin-7-yl)-N-((1S,2R)-2-hydroxycyclohexyl)-2-phenylpropanamide]", "IC50": 14.2},
      {"smiles": "CC(C(=O)NCc1ccncc1)(c1ccccc1)n1ncc2c1nc(N)n1nc(-c3ccco3)nc21", "note": "(centres unmarked) [Example 83, 2-(5-amino-2-(furan-2-yl)-7H-pyrazolo[4,3-e][1,2,4]triazolo[1,5-c]pyrimidin-7-yl)-2-phenyl-N-(pyridin-4-ylmethyl)propenamide]", "IC50": 11.2},
      {"smiles": "Nc1nc2c(cnn2C(C(=O)NCCc2ccccc2)c2ccccc2)c2nc(-c3ccco3)nn12", "note": "(centres unmarked) [Example 17, 2-(5-amino-2-(furan-2-yl)-7H-pyrazolo[4,3-e][1,2,4]triazolo[1,5-c]pyrimidin-7-yl)-N-phenethyl-2-phenylacetamide]", "IC50": 3},
      {"smiles": "Nc1nc2c(cnn2C(C(=O)NCc2ccccc2)c2ccccc2)c2nc(-c3ccco3)nn12", "note": "(centres unmarked) [Example 1, 2-(5-amino-2-(furan-2-yl)-7H-pyrazolo[4,3-e][1,2,4]triazolo[1,5-c]pyrimidin-7-yl)-N-benzyl-2-phenylacetamide]", "IC50": 1.4},
      {"smiles": "COc1ccccc1C(C)(C(=O)N[C@H]1CC[C@@H](O)CC1)n1ncc2c1nc(N)n1nc(-c3ccco3)nc21", "note": "(relative stereo) [Example 139, 2-(5-amino-2-(furan-2-yl)-7H-pyrazolo[4,3-e][1,2,4]triazolo[1,5-c]pyrimidin-7-yl)-N-((cis)-4-hydroxycyclohexyl)-2-(2-methoxyphenyl)propanamide]", "IC50": 1.9}
    ]}
  ]
}
